In patent US5693626A, “Tetrahydrofuran antifungals” (Schering Corporation, priority 1995, dated 1997):
In brackets after ≈: the same amount, converted by molar mass.

Legend:
[1] = system: Candida glabrata; assay: broth dilution MIC, Candida glabrata; type: cell-based; conditions: 9 strains; for percentage of strains with MICs ≤1 mcg/ml: Table Q
Description: (§1) The in vitro antifungal activity tests were performed via conventional broth dilution methods in Sabouraud dextrose broth ("SDB") medium and Eagles Minimum Essential Medium ("EMEM") against a large number of fungi. Minimum Inhibitory Concentrations ("MICs") were measured after 24, 48 and 72 hour tests. In many cases, Minimum Fungicidial Concentrations ("MFCS") were measured after 48 and 72 hours.

[2] = system: Candida albicans; assay: broth dilution MFC, Candida albicans; conditions: 26 strains, Table R
Description: as §1

[3] = system: Dermatophytes; assay: broth dilution MIC, Dermatophytes; type: cell-based, T. rubrum, T. mentagrophytes, and T. tonsurans; conditions: 6 strains; for percentage of strains with MICs ≤1 mcg/ml: Table Q; for MIC90: Table S
[4] = system: Candida krusei; assay: broth dilution MIC, Candida krusei; type: cell-based; conditions: 16 strains; for percentage of strains with MICs ≤1 mcg/ml: Table Q; for MIC90: Pichia kudriavzevii, Table S
[5] = system: Candida albicans; assay: broth dilution MIC, Candida albicans; type: cell-based; conditions: 26 strains; for percentage of strains with MICs ≤1 mcg/ml: Table Q; for MIC90: Table S
Description: as §1

[6] = system: Cryptococcus neoformans; assay: broth dilution MIC, Cryptococcus neoformans; type: cell-based; conditions: 3 strains; for percentage of strains with MICs ≤1 mcg/ml: Table Q; for MIC90: Table S
Description: as §1

[7] = system: Aspergillus; assay: broth dilution MFC, Aspergillus; type: cell-based, Aspergillus (flavus, fumigatus and other species); conditions: for percentage of strains with MFCs ≤1 mcg/ml: Aspergillus, 37 strains, Table R
[8] = system: Candida tropicalis & stellatoidea; assay: broth dilution MFC, Candida tropicalis & stellatoidea; conditions: 5 strains, Table R
Description: as §1

[9] = system: Cryptococcus neoformans; assay: broth dilution MFC, Cryptococcus neoformans; type: cell-based; conditions: 3 strains, Table R
Description: as §1

[10] = system: Candida tropicalis & stellatoidea; assay: broth dilution MIC, Candida tropicalis & stellatoidea; type: cell-based; conditions: 5 strains; for percentage of strains with MICs ≤1 mcg/ml: Table Q; for MIC90: Table S
Description: as §1

[11] = system: Candida krusei; assay: broth dilution MFC, Candida krusei; type: cell-based; conditions: 16 strains, Table R
Description: as §1

[12] = system: Dermatophytes; assay: broth dilution MFC, Dermatophytes; type: cell-based, T. rubrum, T. mentagrophytes, and T. tonsurans; conditions: 6 strains, Table R
Description: as §1

[13] = system: Aspergillus; assay: broth dilution MIC, Aspergillus; type: cell-based, Aspergillus (flavus, fumigatus and other species); conditions: for percentage of strains with MICs ≤1 mcg/ml / MIC90: Aspergillus, 37 strains; for percentage of strains with MICs ≤1 mcg/ml: Table Q; for MIC90: Table S
[14] = system: Candida glabrata; assay: broth dilution MFC, Candida glabrata; type: cell-based; conditions: 9 strains, Table R
Description: as §1

[15] = Janssen U.S. Pat. No. 4,791,111; cited from earlier work
[16] = serum levels following oral dosing, dogs; type: in vivo; conditions: methyl cellulose formulation
[17] = system: cytochrome P-450 liver drug metabolizing enzymes; assay: induction of cytochrome P-450 after oral administration in an in vivo rat model
[18] = serum levels following oral dosing, rats; type: in vivo; conditions: methyl cellulose formulation
[19] = serum levels following oral dosing, monkeys; type: in vivo; conditions: methyl cellulose formulation
[20] = serum levels following oral dosing, mice; type: in vivo; conditions: methyl cellulose formulation

Compound	percentage of strains with MICs ≤1 mcg/ml [1]	percentage of strains with MFCs ≤1 mcg/ml [2]	percentage of strains with MICs ≤1 mcg/ml [3]	MIC90 [3] [µg/mL]	percentage of strains with MICs ≤1 mcg/ml [4]	MIC90 [4] [µg/mL]	percentage of strains with MICs ≤1 mcg/ml [5]	percentage of strains with MICs ≤1 mcg/ml [6]	MIC90 [6] [µg/mL]	percentage of strains with MFCs ≤1 mcg/ml [7]	percentage of strains with MFCs ≤1 mcg/ml [8]	percentage of strains with MFCs ≤1 mcg/ml [9]	percentage of strains with MICs ≤1 mcg/ml [10]	MIC90 [10] [µg/mL]	percentage of strains with MFCs ≤1 mcg/ml [11]	percentage of strains with MFCs ≤1 mcg/ml [12]	percentage of strains with MICs ≤1 mcg/ml [13]	percentage of strains with MFCs ≤1 mcg/ml [14]	MIC90 [5] [µg/mL]	MIC90 [13] [µg/mL]	also measured
CC[C@H]([C@H](C)O)n1ncn(-c2ccc(N3CCN(c4ccc(OC[C@@H]5CO[C@@](Cn6cncn6)(c6ccc(F)cc6F)C5)cc4)CC3)cc2)c1=O	22 percentage of strains	100 percentage of strains	100 percentage of strains	0.165 (≈ 0.235 µM)	100 percentage of strains	0.058 (≈ 0.0828 µM)	100 percentage of strains	100 percentage of strains	0.05 (≈ 0.0713 µM)	50 percentage of strains	100 percentage of strains	100 percentage of strains	100 percentage of strains	0.117 (≈ 0.167 µM)	88 percentage of strains	67 percentage of strains	100 percentage of strains	22 percentage of strains			
CC[C@@H]([C@@H](C)O)n1ncn(-c2ccc(N3CCN(c4ccc(OC[C@@H]5CO[C@@](Cn6cncn6)(c6ccc(F)cc6F)C5)cc4)CC3)cc2)c1=O	33 percentage of strains	100 percentage of strains	100 percentage of strains	0.707 (≈ 1.01 µM)	100 percentage of strains	0.12 (≈ 0.171 µM)	100 percentage of strains	100 percentage of strains	0.101 (≈ 0.144 µM)	89 percentage of strains	100 percentage of strains	100 percentage of strains	100 percentage of strains	0.354 (≈ 0.505 µM)	100 percentage of strains	100 percentage of strains	100 percentage of strains	22 percentage of strains	0.139 (≈ 0.198 µM)	0.112 (≈ 0.16 µM)	
CC(O)C(C)n1ncn(-c2ccc(N3CCN(c4ccc(OCC5COC(Cn6cncn6)(c6ccc(Cl)cc6Cl)O5)cc4)CC3)cc2)c1=O (single isomer, unassigned; (+)) [(+)cis-4-[4-[4-[4-[[2-2,4-dichlorophenyl)-2-(1H-1,2,4-triazol-1-ylmethyl)-1,3-dioxolan-4-yl]methoxy]phenyl]-1-piperazinyl]-2,4dihydro-2-(2-hydroxy-1-methylpropyl)-3H-1,2,4-triazol-3-one]																					solubility [15]: increased solubility
CC[C@@H]([C@H](C)O)n1ncn(-c2ccc(N3CCN(c4ccc(OC[C@@H]5CO[C@@](Cn6cncn6)(c6ccc(F)cc6F)C5)cc4)CC3)cc2)c1=O [drawing 21]																					serum levels compared to azoles of similar structure [16]: consistently higher serum levels; induction of cytochrome P-450 liver drug metabolizing enzymes [17]: not inducers; serum levels compared to azoles of similar structure [18]: consistently higher serum levels; serum levels compared to azoles of similar structure [19]: consistently higher serum levels; serum levels compared to azoles of similar structure [20]: consistently higher serum levels
CC[C@@H]([C@H](C)O)n1ncn(-c2ccc(N3CCN(c4ccc(OC[C@@H]5CO[C@@](Cn6cncn6)(c6ccc(F)cc6F)C5)cc4)CC3)cc2)c1=O [drawing 23]	22 percentage of strains	100 percentage of strains	100 percentage of strains	0.101 (≈ 0.144 µM)	100 percentage of strains	0.014 (≈ 0.02 µM)	100 percentage of strains	100 percentage of strains	0.007 (≈ 0.00999 µM)	62 percentage of strains	100 percentage of strains	100 percentage of strains	100 percentage of strains	0.117 (≈ 0.167 µM)	94 percentage of strains	83 percentage of strains	100 percentage of strains	22 percentage of strains	0.174 (≈ 0.248 µM)	0.096 (≈ 0.137 µM)	MIC90 ([1]; Nakaseomyces glabratus, Table S): 17.1 µg/mL (≈ 24.4 µM)
OC(Cn1cncn1)(Cn1cncn1)c1ccc(F)cc1F [fluconazole, reference compound]	0 percentage of strains	100 percentage of strains	100 percentage of strains		0 percentage of strains		100 percentage of strains	0 percentage of strains		0 percentage of strains	100 percentage of strains	0 percentage of strains	100 percentage of strains		0 percentage of strains	0 percentage of strains	0 percentage of strains	0 percentage of strains			MFC ([7]; SDB, 37 species of Aspergillus, bounds printed with ≤, b40, read-out: geometric mean MFC): ≤ 32 µg/mL; MIC ([13]; SDB, 37 species of Aspergillus, bounds printed with ≤, b40, read-out: geometric mean MIC): ≤ 32 µg/mL
